Assay results reported in patent publication US10294202B2, “Pyrrolidinones as herbicides” (FMC Corporation, priority 2013, dated 2019).

How the values were obtained:
[1] = system: barnyardgrass; assay: Test A pre-/postemergence herbicide test; type: in vivo, Echinochloa crus-galli
Outline: (§1)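 Approximately 10 days after treatment in the greenhouse, plants were compared with untreated controls and given a 0–100 visual injury rating. Applications: preemergence directed soil spray; postemergence on 2–10 cm plants at the one- to two-leaf stage.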

[2] = system: pigweed; assay: Test A pre-/postemergence herbicide test; type: in vivo, Amaranthus retroflexus
Outline: as §1

[3] = system: corn; assay: Test A pre-/postemergence herbicide test; type: in vivo, Zea mays
Outline: as §1

[4] = system: ducksalad; assay: Test B flooded paddy test; type: in vivo, Heteranthera limosa; conditions: Flood, scale of 0 to 100 where 0 is no effect and 100 is complete control
Outline: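 Visual ratings from 0, meaning no effect, up to 100, meaning complete control, were made by comparison with untreated controls 13 to 15 days after treatment. Test compounds went straight into floodwater standing 3 cm over the soil of pots holding 2-leaf seedlings.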

[5] = system: blackgrass; assay: Test C pre-/postemergence herbicide test; type: in vivo, Alopecurus myosuroides
Outline: (§2)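 Plants grown and held in a greenhouse for 13 to 15 days post-spray, then rated 0–100 by visual comparison with controls. Pre treatments targeted seeds in loam and sand; post treatments targeted 1- to 4-leaf plants in peat-based potting medium.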

[6] = system: corn; assay: Test C pre-/postemergence herbicide test; type: in vivo, Zea mays
Outline: as §2

[7] = system: lambsquarters; assay: Test C pre-/postemergence herbicide test; type: in vivo, Chenopodium album
Outline: as §2

[8] = system: morningglory; assay: Test C pre-/postemergence herbicide test; type: in vivo, Ipomoea coccinea
Outline: as §2

[9] = system: nutsedge, yellow; assay: Test C pre-/postemergence herbicide test; type: in vivo, Cyperus esculentus
Outline: as §2

[10] = system: soybean; assay: Test C pre-/postemergence herbicide test; type: in vivo, Glycine max
Outline: as §2

[11] = system: oilseed rape; assay: Test C pre-/postemergence herbicide test; type: in vivo, Brassica napus
Outline: as §2

[12] = Postemergence, 125 g ai/ha, visual rating on 0 to 100 scale (0 no effect, 100 complete control), approx. 10 days
[13] = Postemergence, 500 g ai/ha, 0 to 100 scale (0 no effect, 100 complete control)
[14] = Preemergence, 125 g ai/ha, 0 to 100 scale where 0 is no effect and 100 is complete control
[15] = Preemergence, 500 g ai/ha, visual rating on 0 to 100 scale (0 no effect, 100 complete control)
[16] = Postemergence, 31 g ai/ha, scale 0 to 100 (0 no effect, 100 complete control)
[17] = Postemergence, 62 g ai/ha, scale 0 (no effect) to 100 (complete control)
[18] = Postemergence, 125 g ai/ha, scale 0 to 100 (0 no effect, 100 complete control)
[19] = Postemergence, 250 g ai/ha, scale 0 to 100 (0 no effect, 100 complete control)
[20] = Preemergence, 31 g ai/ha, scale 0 to 100, 0 is no effect and 100 is complete control
[21] = Preemergence, 62 g ai/ha, scale 0 to 100 (0 no effect, 100 complete control)
[22] = Preemergence, 125 g ai/ha, scale 0 to 100
[23] = Postemergence, 16 g ai/ha, scale 0 to 100 (0 no effect, 100 complete control)
[24] = Preemergence, 125 g ai/ha, scale 0 to 100 (0 no effect, 100 complete control)
[25] = Preemergence, 16 g ai/ha, scale 0 to 100
[26] = Postemergence, 125 g ai/ha, 0 to 100 scale, 0 is no effect, 100 is complete control
[27] = preemergence, 500 g ai/ha, 0 to 100 scale, 0 is no effect and 100 is complete control

## O=C1NCC(c2cccc(Br)c2)C1C(=O)Nc1cccc(F)c1F (centres unmarked) [Compound 309]
[1]; [12]
  Plant response rating, Barnyardgrass: 80
[1]; [13]
  Plant response rating, Barnyardgrass: 90
[1]; [14]
  Plant response rating, Barnyardgrass: 80
[1]; [15]
  Barnyardgrass plant response rating: 80
[2]; [12]
  Plant response rating, Pigweed: 0
[2]; [13]
  Plant response rating, Pigweed: 0
[2]; [14]
  Plant response rating, Pigweed: 0
[2]; [15]
  Pigweed plant response rating: 0
[3]; [12]
  Plant response rating, Corn: 30
[3]; [13]
  Plant response rating, Corn: 80
[4]; 500 g ai/ha
  Plant response rating, Ducksalad: 100
[5]; [16]
  Plant response rating, Blackgrass: 0
[5]; [17]
  Plant response rating, Blackgrass: 0
[5]; [18]
  Plant response rating, Blackgrass: 5
[5]; [19]
  Plant response rating, Blackgrass: 5
[5]; [20]
  Blackgrass plant response rating: 0
[5]; [21]
  Blackgrass plant response rating: 0
[5]; [22]
  Plant response rating, Blackgrass: 50
[5]; Preemergence, 250 g ai/ha
  Plant response rating (scale of 0 to 100), Blackgrass: 45
[6]; [16]
  Plant response rating, Corn: 0
[6]; [17]
  Plant response rating, Corn: 0
[6]; [18]
  Plant response rating, Corn: 0
[6]; [19]
  Plant response rating, Corn: 20
[6]; [20]
  Corn plant response rating: 0
[6]; [21]
  Corn plant response rating: 0
[6]; [22]
  Plant response rating, Corn: 65
[6]; Preemergence, 250 g ai/ha
  Plant response rating (scale of 0 to 100), Corn: 70
[7]; [16]
  Plant response rating, Lambsquarters: 10
[7]; [17]
  Plant response rating, Lambsquarters: 65
[7]; [18]
  Plant response rating, Lambsquarters: 65
[7]; [19]
  Plant response rating, Lambsquarters: 70
[7]; [20]
  Lambsquarters plant response rating: 0
[7]; [21]
  Lambsquarters plant response rating: 0
[7]; [22]
  Plant response rating, Lambsquarters: 30
[7]; Preemergence, 250 g ai/ha
  Plant response rating (scale of 0 to 100), Lambsquarters: 50
[8]; [16]
  Plant response rating, Morningglory: 60
[8]; [17]
  Plant response rating, Morningglory: 10
[8]; [18]
  Plant response rating, Morningglory: 25
[8]; [19]
  Plant response rating, Morningglory: 10
[8]; [20]
  Morningglory plant response rating: 0
[8]; [21]
  Morningglory plant response rating: 0
[8]; [22]
  Plant response rating, Morningglory: 10
[8]; Preemergence, 250 g ai/ha
  Plant response rating (scale of 0 to 100), Morningglory: 10
[9]; [16]
  Plant response rating, Nutsedge, Yellow: 0
[9]; [17]
  Plant response rating, Nutsedge, Yellow: 5
[9]; [18]
  Plant response rating, Nutsedge, Yellow: 30
[9]; [19]
  Plant response rating, Nutsedge, Yellow: 0
[9]; [20]
  Nutsedge, Yellow plant response rating: 0
[9]; [21]
  Nutsedge, Yellow plant response rating: 0
[9]; [22]
  Plant response rating, Nutsedge, Yellow: 0
[9]; Preemergence, 250 g ai/ha
  Plant response rating (scale of 0 to 100), Nutsedge, Yellow: 0
[10]; [16]
  Plant response rating, Soybean: 0
[10]; [17]
  Plant response rating, Soybean: 0
[10]; [18]
  Plant response rating, Soybean: 15
[10]; [19]
  Plant response rating, Soybean: 0
[10]; [21]
  Soybean plant response rating: 0
[10]; [22]
  Plant response rating, Soybean: 0
[10]; Preemergence, 250 g ai/ha
  Plant response rating (scale of 0 to 100), Soybean: 0
[11]; [16]
  Plant response rating, Oilseed Rape: 35
[11]; [17]
  Plant response rating, Oilseed Rape: 30
[11]; [18]
  Plant response rating, Oilseed Rape: 40
[11]; [19]
  Plant response rating, Oilseed Rape: 5
[11]; [20]
  Oilseed Rape plant response rating: 0
[11]; [21]
  Oilseed Rape plant response rating: 0
[11]; [22]
  Plant response rating, Oilseed Rape: 50
[11]; Preemergence, 250 g ai/ha
  Plant response rating (scale of 0 to 100), Oilseed Rape: 70

## CN1CC(c2ccc(C(F)(F)F)cc2)C(C(=O)Nc2ccccc2F)C1=O (centres unmarked) [Compound 304]
[1]; [12]
  Plant response rating, Barnyardgrass: 80
[1]; [13]
  Plant response rating, Barnyardgrass: 90
[1]; [14]
  Plant response rating, Barnyardgrass: 90
[1]; [15]
  Barnyardgrass plant response rating: 90
[2]; [12]
  Plant response rating, Pigweed: 40
[2]; [13]
  Plant response rating, Pigweed: 60
[2]; [14]
  Plant response rating, Pigweed: 70
[2]; [15]
  Pigweed plant response rating: 80
[3]; [12]
  Plant response rating, Corn: 30
[3]; [13]
  Plant response rating, Corn: 70
[4]; 500 g ai/ha
  Plant response rating, Ducksalad: 100
[5]; [23]
  Plant response rating, Blackgrass: 0
[5]; [16]
  Plant response rating, Blackgrass: 0
[5]; [17]
  Plant response rating, Blackgrass: 0
[5]; [18]
  Plant response rating, Blackgrass: 0
[5]; [20]
  Blackgrass plant response rating: 35
[5]; [21]
  Blackgrass plant response rating: 60
[5]; [24]
  Plant response rating, Blackgrass: 70
[5]; [25]
  Plant response rating, Blackgrass: 30
[6]; [23]
  Plant response rating, Corn: 0
[6]; [16]
  Plant response rating, Corn: 0
[6]; [17]
  Plant response rating, Corn: 0
[6]; [18]
  Plant response rating, Corn: 5
[6]; [20]
  Corn plant response rating: 0
[6]; [21]
  Corn plant response rating: 40
[6]; [24]
  Plant response rating, Corn: 65
[6]; [25]
  Plant response rating, Corn: 0
[7]; [23]
  Plant response rating, Lambsquarters: 65
[7]; [16]
  Plant response rating, Lambsquarters: 35
[7]; [17]
  Plant response rating, Lambsquarters: 75
[7]; [18]
  Plant response rating, Lambsquarters: 70
[7]; [20]
  Lambsquarters plant response rating: 65
[7]; [21]
  Lambsquarters plant response rating: 70
[7]; [24]
  Plant response rating, Lambsquarters: 80
[7]; [25]
  Plant response rating, Lambsquarters: 30
[8]; [23]
  Plant response rating, Morningglory: 20
[8]; [16]
  Plant response rating, Morningglory: 50
[8]; [17]
  Plant response rating, Morningglory: 20
[8]; [18]
  Plant response rating, Morningglory: 45
[8]; [20]
  Morningglory plant response rating: 5
[8]; [21]
  Morningglory plant response rating: 50
[8]; [24]
  Plant response rating, Morningglory: 40
[8]; [25]
  Plant response rating, Morningglory: 0
[9]; [23]
  Plant response rating, Nutsedge, Yellow: 0
[9]; [16]
  Plant response rating, Nutsedge, Yellow: 0
[9]; [17]
  Plant response rating, Nutsedge, Yellow: 0
[9]; [18]
  Plant response rating, Nutsedge, Yellow: 0
[9]; [20]
  Nutsedge, Yellow plant response rating: 0
[9]; [21]
  Nutsedge, Yellow plant response rating: 25
[9]; [24]
  Plant response rating, Nutsedge, Yellow: 0
[9]; [25]
  Plant response rating, Nutsedge, Yellow: 0
[10]; [23]
  Plant response rating, Soybean: 0
[10]; [16]
  Plant response rating, Soybean: 0
[10]; [17]
  Plant response rating, Soybean: 5
[10]; [18]
  Plant response rating, Soybean: 10
[10]; [20]
  Soybean plant response rating: 0
[10]; [21]
  Soybean plant response rating: 0
[10]; [24]
  Plant response rating, Soybean: 0
[10]; [25]
  Plant response rating, Soybean: 0
[11]; [23]
  Plant response rating, Oilseed Rape: 0
[11]; [16]
  Plant response rating, Oilseed Rape: 0
[11]; [17]
  Plant response rating, Oilseed Rape: 0
[11]; [18]
  Plant response rating, Oilseed Rape: 0
[11]; [20]
  Oilseed Rape plant response rating: 50
[11]; [21]
  Oilseed Rape plant response rating: 55
[11]; [24]
  Plant response rating, Oilseed Rape: 55
[11]; [25]
  Plant response rating, Oilseed Rape: 30

## O=C1NCC(c2ccc(C(F)(F)F)nc2)C1C(=O)Nc1cccc(F)c1F (racemic) [Compound 263]
[1]; [26]
  Plant response rating, Barnyardgrass: 70
[1]; [13]
  Plant response rating, Barnyardgrass: 80
[1]; [14]
  Plant response rating, Barnyardgrass: 80
[1]; [27]
  Plant response rating, Barnyardgrass: 90
[2]; [13]
  Plant response rating, Pigweed: 70
[2]; [14]
  Plant response rating, Pigweed: 60
[2]; [27]
  Plant response rating, Pigweed: 100
[3]; [26]
  Plant response rating, Corn: 40
[3]; [13]
  Plant response rating, Corn: 60
[3]; [14]
  Plant response rating, Corn: 0
[3]; [27]
  Plant response rating, Corn: 70
[4]; 1000 g ai/ha
  Plant response rating, Ducksalad: 90
[5]; [20]
  Blackgrass plant response rating: 0
[5]; [21]
  Blackgrass plant response rating: 0
[5]; [24]
  Plant response rating, Blackgrass: 40
[5]; Preemergence, 250 g ai/ha
  Plant response rating (scale of 0 to 100), Blackgrass: 70
[6]; [20]
  Corn plant response rating: 0
[6]; [21]
  Corn plant response rating: 0
[6]; [24]
  Plant response rating, Corn: 0
[6]; Preemergence, 250 g ai/ha
  Plant response rating (scale of 0 to 100), Corn: 10
[7]; [20]
  Lambsquarters plant response rating: 50
[7]; [21]
  Lambsquarters plant response rating: 100
[7]; [24]
  Plant response rating, Lambsquarters: 70
[7]; Preemergence, 250 g ai/ha
  Plant response rating (scale of 0 to 100), Lambsquarters: 80
[8]; [20]
  Morningglory plant response rating: 0
[8]; [21]
  Morningglory plant response rating: 0
[8]; [24]
  Plant response rating, Morningglory: 20
[8]; Preemergence, 250 g ai/ha
  Plant response rating (scale of 0 to 100), Morningglory: 10
[9]; [20]
  Nutsedge, Yellow plant response rating: 0
[9]; [21]
  Nutsedge, Yellow plant response rating: 0
[9]; [24]
  Plant response rating, Nutsedge, Yellow: 100
[9]; Preemergence, 250 g ai/ha
  Plant response rating (scale of 0 to 100), Nutsedge, Yellow: 0
[10]; [20]
  Soybean plant response rating: 0
[10]; [21]
  Soybean plant response rating: 0
[10]; [24]
  Plant response rating, Soybean: 100
[10]; Preemergence, 250 g ai/ha
  Plant response rating (scale of 0 to 100), Soybean: 0
[11]; [20]
  Oilseed Rape plant response rating: 40
[11]; [21]
  Oilseed Rape plant response rating: 60
[11]; [24]
  Plant response rating, Oilseed Rape: 60
[11]; Preemergence, 250 g ai/ha
  Plant response rating (scale of 0 to 100), Oilseed Rape: 90
